In general, IC50 refers to the point on the concentration scale where inhibition reaches its midpoint.

These results are taken from patent US20170313674A1, “BENZYLHYDROXIDE DERIVATIVES, PREPARATION THEREOF AND THERAPEUTIC USE THEREOF” (SANOFI, priority 2014, published 2017).

Molecules are shown by their SMILES. Counter-ions that a name gives are not always drawn. Like-named read-outs stand apart in the source and are kept apart here. Bounds are passed on as bounds.

In test [1] the test system is mitochondrial ATP production on non-small cell lung carcinoma cell lines NCI-H460. Briefly: Mitochondrial ATP analysis (Cell Titer Glo) in NCI-H460 cells. In kind it is cell-based. As to conditions: 1-hour incubation, with sodium iodoacetate (100 μM), concentration inhibiting 50% of mitochondrial ATP production, read-out: IC50 (mito ATP). How it is done: In order to evaluate the inhibitory activity of the all compounds, an in vitro assay was developed which read out is directly linked to mitochondrial complex 1 inhibition. Since mitochondrial complex 1 contributes to the formation of membrane potential coupled to the mitochondrial ATP synthesis, complex 1 inhibition directly leads in cells to the inhibition of mitochondrial ATP production. Cellular ATP contents were measured in presence of either glycolysis inhibitor (sodium iodocetate) and/or mitochondrial inhibitors (F0F1-ATPase inhibitor: oligomycin or mitochondrial uncoupler: FCCP) to determine the ATP production part relying either on glycolytic or on mitochondrial metabolism.
Mitochondrial ATP Analysis
The compounds of the invention were evaluated for their ability to inhibit mitochondrial
ATP was measured using the Promega Cell Titer Glo kit and protocol. In summary, 1,000 cells were plated in 40 μL in a 384 well plate. 24 hours later, medium was replaced by 20 μl culture medium in presence of compounds: cells were treated in replicates of five with control (PBS), oligomycin A (10 μg/ml), FCCP (30 μM), or the compounds of the invention in dose effect both alone or in combination with sodium iodoacetate (100 μM). Following a 1-hour incubation, 20 μL of CellTtiter-glo™ reaction mix were added to each well for a final volume of 40 μL. Plates were then analyzed for luminescence with a Perkin Elmer EnVision. By comparing the different conditions, global ATP and percentages of both glycolytic and mitochondrial ATP were determined.
The mitochondrial ATP production was calculated as the remaining ATP under iodoacetate treatment minus basal ATP (ATP content under iodoacetate and oligomycin treatment). Inhibitory activity of the compounds on mitochondrial ATP in NCI-H460 cells is expressed as the concentration needed to inhibit 50% of mitochondrial ATP production (IC50, M).
A general note: Cellular ATP, detected with luciferase, serves as a proxy for viable cell number.

The next test concerns HIF-1a. Briefly: Western blot model: HIF1-a stabilization in Hep3b cells under hypoxia. The test is classed as cell-based. The following applies: hypoxia 1% O2, 6 hours; for Western Blot (range of decrease of HIF1-a stabilization): class symbol. How it is done: Since it was sought to determine the efficacy of the compounds to inhibit HIF1a stabilization under hypoxia, the compounds according to the invention underwent biochemical studies in order to determine their capacity to decrease HIF stabilization in Hep3b cells under hypoxia (western blot model).
Hep3B cells are seeded at a rate of 300000 cells per well in 6-wells culture plate in 2 ml of MEM supplemented with glutamin (2 mM) and 10% FCS (foetal calf serum) and incubated at 37° C. in the presence of 5% CO2. The next day, the cells are placed in contact with the compound and an incubation under hypoxia at 1% O2 is carried out at 37° C. in 95% humidity and 5% CO2 in a sealed anaerobic workstation (Hypoxystation H35-Don Whitley—AES Chemunex) during 6 hours.
Cells were washed (PBS) and lysed in SDS sample buffer. Proteins (25 μg) were separated on 4-12% Bis-Tris gels and transferred onto polyvinylidene difluoride membranes (Millipore). Membranes were blotted with a mouse monoclonal antibody to HIF-1a (BD transduction) and a mouse monoclonal anti-βactin (Sigma). Immunoreactive bands were detected with a horse radish peroxydase (HRP) anti-mouse antibody (Sigma) by enhanced chemiluminescence (Promega).
The inhibitory activity of the compounds for their capacity to decrease HIF1-a stabilization in Hep3b under hypoxia is expressed as range of percentage relative to control with: […]
(A western blot detects proteins with antibodies after separation by electrophoresis.)

Turning to `COc1ccc(C(O)C(C)(C)Oc2ccc(-c3nc(-c4ccc(OC(C)(C)C(O)c5ccc(OC)c(OC)c5)cc4)c(C)o3)cc2)cc1OC` (single isomer, unassigned) [Compound I-3, 1-(3,4-dimethoxyphenyl)-2-[4-[2-[4-[2-(3,4-dimethoxyphenyl)-2-hydroxy-1,1-dimethyl-ethoxy]phenyl]-5-methyl-oxazol-4-yl]phenoxy]-2-methyl-propan-1-ol], in test [1] (Homo sapiens, NCI-H460, 1 h), the IC50 came out at 8.85 nM. Also, in the test on HIF-1a, the “Western Blot (decrease of HIF1-a stabilization, percentage relative to control)” value was 70% and the “Western Blot (range of decrease of HIF1-a stabilization)” value is recorded as “*** (*** represents a decrease of HIF-a stabilization higher than 70%)”.

In the case of `COc1ccc(C(O)C(C)(C)Oc2ccc(-c3nc(-c4ccc(OC(C)(C)C(O)c5ccc(OC)c(OC)c5)cc4)c(C)o3)cc2)cc1OC` (single isomer, unassigned) [Compound I-4, 1-(3,4-dimethoxyphenyl)-2-[4-[2-[4-[2-(3,4-dimethoxyphenyl)-2-hydroxy-1,1-dimethyl-ethoxy]phenyl]-5-methyl-oxazol-4-yl]phenoxy]-2-methyl-propan-1-ol], the 50% inhibitory concentration (IC50) in test [1] is 12 nM. Also, in the test on HIF-1a, the “Western Blot (decrease of HIF1-a stabilization, percentage relative to control)” value was found to be 72% and the “Western Blot (range of decrease of HIF1-a stabilization)” value was “*** (*** represents a decrease of HIF-a stabilization higher than 70%)”.

For `COc1ccc(C(O)C(C)(C)Oc2ccc(-c3nc(-c4ccc(OC(C)(C)C(O)c5ccc(OC)c(OC)c5)cc4)c(C)s3)cc2)cc1OC` (single isomer, unassigned) [Compound I-8, 1-(3,4-dimethoxyphenyl)-2-[4-[2-[4-[2-(3,4-dimethoxyphenyl)-2-hydroxy-1,1-dimethyl-ethoxy]phenyl]-5-methyl-thiazol-4-yl]phenoxy]-2-methyl-propan-1-ol], the IC50 in test [1] was determined as 2.06 nM. Also, in the test with HIF-1a, the “Western Blot (decrease of HIF1-a stabilization, percentage relative to control)” value was 47% and the “Western Blot (range of decrease of HIF1-a stabilization)” value was “* (* represents a decrease of HIF-a stabilization between 30 to 50%)”.

`COc1ccc(C(O)C(C)(C)Oc2ccc(-c3nc(-c4ccc(OC(C)(C)C(O)c5ccc(OC)c(OC)c5)cc4)c(C)s3)cc2)cc1OC` (single isomer, unassigned) [Compound I-9, 1-(3,4-dimethoxyphenyl)-2-[4-[2-[4-[2-(3,4-dimethoxyphenyl)-2-hydroxy-1,1-dimethyl-ethoxy]phenyl]-5-methyl-thiazol-4-yl]phenoxy]-2-methyl-propan-1-ol]: the IC50 in test [1] (Homo sapiens, NCI-H460, 1 h) was 3.86 nM. Moreover, in the test with HIF-1a, the “Western Blot (decrease of HIF1-a stabilization, percentage relative to control)” value came out at 58.5% and the “Western Blot (range of decrease of HIF1-a stabilization)” value was “** (** represents a decrease of HIF-a stabilization between 50 to 70%)”.

Consider `COc1ccc(C(O)COc2ccc(-c3nc(-c4ccc(OCC(O)c5ccc(OC)c(OC)c5)cc4)c(C)s3)cc2)cc1OC` (single isomer, unassigned) [Compound I-10, 1-(3,4-dimethoxyphenyl)-2-[4-[2-[4-[2-(3,4-dimethoxyphenyl)-2-hydroxy-ethoxy]phenyl]-5-methyl-thiazol-4-yl]phenoxy]ethanol], for which the IC50 in test [1] was found to be 146 nM. Moreover, in the test on HIF-1a, the “Western Blot (decrease of HIF1-a stabilization, percentage relative to control)” value was 62% and the “Western Blot (range of decrease of HIF1-a stabilization)” value is reported as “** (** represents a decrease of HIF-a stabilization between 50 to 70%)”.

On to `COc1cc(C(O)COc2ccc(-c3csc(-c4ccc(OCC(O)c5ccc(OC(F)F)c(OC)c5)cc4)n3)cc2)ccc1OC(F)F` (single isomer, unassigned) [Compound I-52, 1-[4-(difluoromethoxy)-3-methoxy-phenyl]-2-[4-[2-[4-[2-[4-(difluoromethoxy)-3-methoxy-phenyl]-2-hydroxy-ethoxy]phenyl]thiazol-4-yl]phenoxy]ethanol], for which, in test [1], the IC50 is greater than 10000 nM.

With `COc1ccc(C(O)COc2ccc(-c3nc(-c4ccc(OC(C)(C)C(O)c5ccc(OC)c(OC)c5)cc4)cs3)cc2)cc1OC` (single isomer, unassigned) [Compound I-67, 1-(3,4-dimethoxyphenyl)-2-[4-[2-[4-[2-(3,4-dimethoxyphenyl)-2-hydroxy-ethoxy]phenyl]thiazol-4-yl]phenoxy]-2-methyl-propan-1-ol], the IC50 in test [1] was determined as 156 nM.

Consider `COc1ccc(C(O)COc2ccc(-c3nc(-c4ccc(OC(C)(C)C(O)c5ccc(OC)c(OC)c5)cc4)cs3)cc2)cc1OC` (single isomer, unassigned) [Compound I-68, 1-(3,4-dimethoxyphenyl)-2-[4-[2-[4-[2-(3,4-dimethoxyphenyl)-2-hydroxy-ethoxy]phenyl]thiazol-4-yl]phenoxy]-2-methyl-propan-1-ol], for which, in test [1], the IC50 worked out at 32.8 nM.

On to `COc1cc(C(O)COc2ccc(-c3coc(-c4ccc(OCC(O)c5ccc(Cl)c(OC)c5)cc4)n3)cc2)ccc1Cl` (centres unmarked) [Compound I-15, 1-(4-chloro-3-methoxy-phenyl)-2-[4-[2-[4-[2-(4-chloro-3-methoxy-phenyl)-2-hydroxy-ethoxy]phenyl]oxazol-4-yl]phenoxy]ethanol], for which the IC50 in test [1] (Homo sapiens, NCI-H460, 1 h) was 1550 nM.

For the molecule `COc1cc(C(O)COc2ccc(-c3coc(-c4ccc(OCC(O)c5ccc(F)c(OC)c5)cc4)n3)cc2)ccc1F` (centres unmarked) [Compound I-16, 1-(4-fluoro-3-methoxy-phenyl)-2-[4-[2-[4-[2-(4-fluoro-3-methoxy-phenyl)-2-hydroxy-ethoxy]phenyl]oxazol-4-yl]phenoxy]ethanol], in test [1] (Homo sapiens, NCI-H460, 1 h), the IC50 is 354 nM.

Turning to `COc1ccc(C(O)COc2ccc(-c3coc(-c4ccc(OCC(O)c5ccc(OC)c(F)c5)cc4)n3)cc2)cc1F` (centres unmarked) [Compound I-17, 1-(3-fluoro-4-methoxy-phenyl)-2-[4-[2-[4-[2-(3-fluoro-4-methoxy-phenyl)-2-hydroxy-ethoxy]phenyl]oxazol-4-yl]phenoxy]ethanol], the IC50 in test [1] (Homo sapiens, NCI-H460, 1 h) came to 3960 nM.

For `COc1cc(C(O)COc2ccc(-c3coc(-c4ccc(OCC(O)c5cc(OC)c(OC)c(OC)c5)cc4)n3)cc2)cc(OC)c1OC` (centres unmarked) [Compound I-20, 2-[4-[2-[4-[2-hydroxy-2-(3,4,5-trimethoxyphenyl)ethoxy]phenyl]oxazol-4-yl]phenoxy]-1-(3,4,5-trimethoxyphenyl)ethanol], in test [1] (Homo sapiens, NCI-H460, 1 h), the IC50 came out at 1420 nM.

For the molecule `COc1ccc(C(O)COc2ccc(-c3c[nH]c(-c4ccc(OCC(O)c5ccc(OC)c(OC)c5)cc4)n3)cc2)cc1OC` (centres unmarked) [Compound I-53, 1-(3,4-dimethoxyphenyl)-2-[4-[2-[4-[2-(3,4-dimethoxyphenyl)-2-hydroxy-ethoxy]phenyl]-1H-imidazol-4-yl]phenoxy]ethanol], the IC50 in test [1] (Homo sapiens, NCI-H460, 1 h) was found to be 956 nM.

With `COc1ccc(C(O)C(C)(C)Oc2ccc(-c3c[nH]c(-c4ccc(OC(C)(C)C(O)c5ccc(OC)c(OC)c5)cc4)n3)cc2)cc1OC` (centres unmarked) [Compound I-54, 1-(3,4-dimethoxyphenyl)-2-[4-[2-[4-[2-(3,4-dimethoxyphenyl)-2-hydroxy-1,1-dimethyl-ethoxy]phenyl]-1H-imidazol-4-yl]phenoxy]-2-methyl-propan-1-ol], the half-maximal inhibitory concentration (IC50) in test [1] (Homo sapiens, NCI-H460, 1 h) was found to be 672 nM.

Consider `COc1ccc(C(O)C(C)(C)Oc2ccc(-c3cn(CCN4CCOCC4)c(-c4ccc(OC(C)(C)C(O)c5ccc(OC)c(OC)c5)cc4)n3)cc2)cc1OC` (centres unmarked) [Compound I-59, 1-(3,4-dimethoxyphenyl)-2-[4-[2-[4-[2-(3,4-dimethoxyphenyl)-2-hydroxy-1,1-dimethyl-ethoxy]phenyl]-1-(2-morpholinoethyl)imidazo1-4-yl]phenoxy]-2-methyl-propan-1-ol], for which the IC50 in test [1] (Homo sapiens, NCI-H460, 1 h) came to 2750 nM.

As for `COc1ccc(C(O)COc2ccc(-c3cn(CCN4CCOCC4)c(-c4ccc(OCC(O)c5ccc(OC)c(OC)c5)cc4)n3)cc2)cc1OC` (centres unmarked) [Compound I-60, 1-(3,4-dimethoxyphenyl)-2-[4-[2-[4-[2-(3,4-dimethoxyphenyl)-2-hydroxy-ethoxy]phenyl]-1-(2-morpholinoethyl)imidazo1-4-yl]phenoxy]ethanol hydrochloride], in test [1], the IC50 is greater than 10000 nM.
